Laboratory results published in patent publication US8598173B2, “1-[(6,7-substituted alkoxyquinoxalinyl)aminocarbonyl]-4-(hetero)arylpiperazine derivatives for treating tumors” (Korea Research Institute of Chemical Technology, priority 2004, dated 2013).
Like-named read-outs stand apart in the source and are kept apart here.

Experiments:
MDA-MB-231 (breast) = assay: Cell growth inhibition assay (SRB), MDA-MB-231; format: cell-based, human; conditions: Homo sapiens, SRB method, 96 hours incubation
Description: (§1) OVCAR-3, MCF-7, PC3, HepG2, A549, HT-29 and MKN-45 were grown in RPMI1640 medium (Invitrogen, Carlsbad, Calif.) supplemented with 10% fetal bovine serum (‘FBS’), 1 mM sodium pyruvate, 10 mM HEPES and 100 U/ml penicillin and […] streptomycin (‘P/S’). MDA-MB-231, HCT116, UMRC2, Caki-1, PANC-1 and HEK293 cells were maintained in Dulbecco's modified Eagle's medium (‘DMEM’, Invitrogen) supplemented with 10% FBS, P/S, 10 mM HEPES and 2 mM L-glutamine. HUVEC was maintained in M199 supplemented with basic fibroblast growth factor (‘bFGF’) […] and FBS 20%. All cells were incubated at 37° C. under humidified 5% CO2.
(§2) The growth inhibition of the substituted quinoxalin-piperazine compounds against a variety of human tumor cells was evaluated. The relative importance of particular substituent groups on the compounds was also studied. The substituted piperazine derivative compounds, prepared as described above, were tested, along with DMSO as a control.
(§3) The growth inhibition assay of various compounds against human tumor cell lines was performed using the Sulforhodamine B (‘SRB’) method (Skehan et al., J. National Cancer Institute, 1990, 82, 1107-1112). […] Triplicate wells were used for each treatment. The cells were incubated with the various compounds for 96 hours at 37° C. in a humidified 5% CO2 atmosphere. After 96-hour incubation, cells were fixed with 10% trichloroacetic acid (‘TCA’), incubated for 1 hour at 4° C., and washed 3 times with tap water. Subsequently cells were stained with 0.4% sulforhodamine B in 1% acetic acid for 30 minutes, washed 4 times with 1% acetic acid, and air-dried again. After 5 minutes agitation in 10 mM Tris solution, the absorbance of each well was measured at 530 nm using Benchmark Plus Microplate reader (Bio-Rad Laboratories, Hercules, Calif.).
(§4) To translate the OD530 values into the number of live cells in each well, the OD530 values were compared to those on standard OD530-versus-cell number curves generated for each cell line. The percent survival was calculated using the formula: % Survival=live cell number[test]/live cell number[control]×100
(§5) The IC50 values were calculated by non-linear regression analysis.

Caki-1 (kidney) = assay: Cell growth inhibition assay (SRB), Caki-1; format: cell-based; conditions: Homo sapiens, SRB method, 96 hours incubation
Description: as §1, §2, §3, §4, §5

[1] = test system: HEK293 (human embryonic kidney); assay: Cell growth inhibition assay (SRB), HEK293; format: cell-based; conditions: SRB method, 96 hours incubation
Description: as §1, §2, §3, §4, §5

HT-29 (colon) = assay: Cell growth inhibition assay (SRB), HT-29; format: cell-based; conditions: Homo sapiens, SRB method, 96 hours incubation
Description: as §1, §2, §3, §4, §5

OVCAR-3 (ovary) = assay: Cell growth inhibition assay (SRB), OVCAR-3; format: cell-based; conditions: Homo sapiens, SRB method, 96 hours incubation
Description: as §1, §2, §3, §4, §5

[2] = test system: MCF-7 (breast, hormone-dependent); assay: Cell growth inhibition assay (SRB), MCF-7; format: cell-based; conditions: Homo sapiens, MCF7, SRB method, 96 hours incubation
Description: as §1, §2, §3, §4, §5

HCT116 (colon) = assay: Cell growth inhibition assay (SRB), HCT116; format: cell-based; conditions: Homo sapiens, HCT-116, SRB method, 96 hours incubation
Description: as §1, §2, §3, §4, §5

[3] = test system: Huvec (human umbilical vein endothelial cells); assay: Cell growth inhibition assay (SRB), Huvec; format: cell-based; conditions: SRB method, 96 hours incubation
Description: as §1, §2, §3, §4, §5

HepG2 (liver) = assay: Cell growth inhibition assay (SRB), HepG2; format: cell-based; conditions: Homo sapiens, SRB method, 96 hours incubation
Description: as §1, §2, §3, §4, §5

A549 (lung) = assay: Cell growth inhibition assay (SRB), A549; format: cell-based; conditions: Homo sapiens, SRB method, 96 hours incubation
Description: as §1, §2, §3, §4, §5

PC3 (prostate) = assay: Cell growth inhibition assay (SRB), PC3; format: cell-based; conditions: Homo sapiens, SRB method, 96 hours incubation
Description: as §1, §2, §3, §4, §5

MKN-45 (stomach) = assay: Cell growth inhibition assay (SRB), MKN-45; format: cell-based; conditions: Homo sapiens, SRB method, 96 hours incubation
Description: as §1, §2, §3, §4, §5

UMRC2 (kidney) = assay: Cell growth inhibition assay (SRB), UMRC2; format: cell-based, human; conditions: Homo sapiens, SRB method, 96 hours incubation
Description: as §1, §2, §3, §4, §5

SK-OV-3 (ovary) = assay: Cell growth inhibition assay (SRB), SK-OV-3; format: cell-based; conditions: Homo sapiens, SRB method, 96 hours incubation
Description: as §1, §2, §3, §4, §5

PANC-1 (pancreas) = assay: Cell growth inhibition assay (SRB), PANC-1; format: cell-based, human; conditions: Homo sapiens, SRB method, 96 hours incubation
Description: as §1, §2, §3, §4, §5

[4] = MDA-MB-231 (breast), read-out: IC50, MDA-MB-231
[5] = Caki-1 (kidney), read-out: IC50, Caki-1
[6] = HEK293 (human embryonic kidney), read-out: IC50, HEK293
[7] = HT-29 (colon), read-out: IC50, HT-29
[8] = OVCAR-3 (ovary), read-out: IC50, OVCAR-3
[9] = MCF-7 (breast, hormone-dependent), read-out: IC50, MCF-7
[10] = HCT116 (colon), read-out: IC50, HCT116
[11] = HepG2 (liver), read-out: IC50, HepG2
[12] = A549 (lung), read-out: IC50, A549
[13] = PC3 (prostate), read-out: IC50, PC3
[14] = MKN-45 (stomach), read-out: IC50, MKN-45
[15] = UMRC2 (kidney), read-out: IC50, UMRC2
[16] = SK-OV-3 (ovary), read-out: IC50, SK-OV-3
[17] = PANC-1 (pancreas), read-out: IC50, PANC-1
[18] = MDA-MB-231, read-out: Inhibition of cell growth (IC50, μM) by quinoxaline-piperazine compounds against human cancer cell lines: MDA-MB-231
[19] = Caki-1, read-out: Inhibition of cell growth (IC50, μM) by quinoxaline-piperazine compounds against human cancer cell lines: Caki-1
[20] = HT-29, HT29, read-out: Inhibition of cell growth (IC50, μM) by quinoxaline-piperazine compounds against human cancer cell lines: HT29
[21] = OVCAR-3, OVCAR3, read-out: Inhibition of cell growth (IC50, μM) by quinoxaline-piperazine compounds against human cancer cell lines: OVCAR3
[22] = read-out: Inhibition of cell growth (IC50, μM) by quinoxaline-piperazine compounds against human cancer cell lines: MCF7
[23] = HCT116, read-out: Inhibition of cell growth (IC50, μM) by quinoxaline-piperazine compounds against human cancer cell lines: HCT116
[24] = HepG2, read-out: Inhibition of cell growth (IC50, μM) by quinoxaline-piperazine compounds against human cancer cell lines: HepG2
[25] = A549, read-out: Inhibition of cell growth (IC50, μM) by quinoxaline-piperazine compounds against human cancer cell lines: A549
[26] = PC-3, read-out: Inhibition of cell growth (IC50, μM) by quinoxaline-piperazine compounds against human cancer cell lines: PC-3
[27] = MKN-45, MKN45, read-out: Inhibition of cell growth (IC50, μM) by quinoxaline-piperazine compounds against human cancer cell lines: MKN45
[28] = UMRC2, read-out: Inhibition of cell growth (IC50, μM) by quinoxaline-piperazine compounds against human cancer cell lines: UMRC2
[29] = PANC-1, read-out: Inhibition of cell growth (IC50, μM) by quinoxaline-piperazine compounds against human cancer cell lines: PANC-1

Row | SMILES | IC50 (MDA-MB-231 (breast); [4]) [µM] | IC50 (Caki-1 (kidney); [5]) [µM] | IC50 [1, 6] [µM] | IC50 (HT-29 (colon); [7]) [µM] | IC50 (OVCAR-3 (ovary); [8]) [µM] | IC50 [2, 9] [µM] | IC50 (HCT116 (colon); [10]) [µM] | IC50 ([3]; read-out: IC50, Huvec) [µM] | IC50 (HepG2 (liver); [11]) [µM] | IC50 (A549 (lung); [12]) [µM] | IC50 (PC3 (prostate); [13]) [µM] | IC50 (MKN-45 (stomach); [14]) [µM] | IC50 (UMRC2 (kidney); [15]) [µM] | IC50 (SK-OV-3 (ovary); [16]) [µM] | IC50 (PANC-1 (pancreas); [17]) [µM] | IC50 (MDA-MB-231 (breast); [18]) [µM] | IC50 (HT-29 (colon); [20]) [µM] | IC50 (A549 (lung); [25]) [µM] | IC50 (UMRC2 (kidney); [28]) [µM] | IC50 (PANC-1 (pancreas); [29]) [µM] | further results
1 | COc1nc2cc(F)ccc2nc1NC(=O)N1CCN(c2cc(C)cc(C)c2)CC1 [Compound 94, 1-[(6-Fluoro-3-methoxyquinoxalin-2-yl)aminocarbonyl]-4-(3,5-dimethylphenyl)piperazine] | 0.41 | 0.33 | 0.57 | 0.89 | 0.29 | 0.36 | 0.4 | 0.16 | 0.48 | 0.42 | 0.7 | 0.25 | 0.32 | 0.5 | 0.56 | – | – | – | – | – | –
2 | COc1nc2cc(Cl)ccc2nc1NC(=O)N1CCN(c2cc(C)cc(C)c2)CC1 [Compound 115, 1-[(6-Chloro-3-methoxyquinoxalin-2-yl)aminocarbonyl]-4-(3,5-dimethylphenyl)piperazine] | 0.13 | 0.31 | 0.5 | 0.46 | 0.31 | 0.45 | 0.45 | 0.52 | 0.41 | 0.59 | 0.62 | 0.43 | 0.11 | 0.5 | 0.17 | – | – | – | – | – | –
3 | COc1cc(OC)cc(N2CCN(C(=O)Nc3nc4cc(F)ccc4nc3OC)CC2)c1 [Compound 5, 1-[(6-Fluoro-2-methoxyquinoxalin-3-yl)aminocarbonyl]-4-(3,5-dimethoxyphenyl)piperazine] | – | – | – | – | – | – | – | – | – | – | – | – | – | – | – | 0.012 | 0.021 | 0.021 | 0.013 | 0.021 | IC50 (Caki-1 (kidney); [19]): 0.011 µM; IC50 (OVCAR-3 (ovary); [21]): 0.012 µM; IC50 [2, 22]: 0.025 µM; IC50 (HCT116 (colon); [23]): 0.019 µM; IC50 (HepG2 (liver); [24]): 0.019 µM; IC50 (PC3 (prostate); [26]): 0.021 µM; IC50 (MKN-45 (stomach); [27]): 0.02 µM
4 | COc1ccc2nc(NC(=O)N3CCN(c4cc(C)cc(C)c4)CC3)c(OC)nc2c1 [Compound 157, 1-[(3,6-Dimethoxyquinoxalin-2-yl)aminocarbonyl]-4-(3,5-dimethylphenyl)piperazine] | 0.41 | 0.3 | 0.53 | 0.78 | 0.29 | 0.21 | 0.38 | 0.15 | 0.56 | 2.5 | 0.58 | 0.27 | 0.27 | 0.5 | 0.47 | – | – | – | – | – | –
5 | COc1cc(OC)cc(N2CCN(C(=O)Nc3nc4cc(Cl)ccc4nc3OC)CC2)c1 [Compound 26, 1-[(6-Chloro-2-methoxyquinoxalin-3-yl)aminocarbonyl]-4-(3,5-dimethoxyphenyl)piperazine] | – | – | – | – | – | – | – | – | – | – | – | – | – | – | – | 0.05 | 0.079 | 0.073 | 0.065 | 0.098 | IC50 (Caki-1 (kidney); [19]): 0.053 µM; IC50 (OVCAR-3 (ovary); [21]): 0.042 µM; IC50 [2, 22]: 0.076 µM; IC50 (HCT116 (colon); [23]): 0.068 µM; IC50 (HepG2 (liver); [24]): 0.063 µM; IC50 (PC3 (prostate); [26]): 0.076 µM; IC50 (MKN-45 (stomach); [27]): 0.064 µM
6 | COc1cccc(N2CCN(C(=O)Nc3nc4cc(C)ccc4nc3OC)CC2)c1 [Compound 45, 1-[(2-Methoxy-6-methylquinoxalin-3-yl)aminocarbonyl]-4-(3-methoxyphenyl)piperazine] | – | – | – | – | – | – | – | – | – | – | – | – | – | – | – | 0.27 | 0.05 | 0.25 | 0.45 | 1.31 | IC50 ([1]; Homo sapiens, Hek293, read-out: Inhibition of cell growth (IC50, μM) by quinoxaline-piperazine compounds against human cancer cell lines: Hek293): 0.5 µM; IC50 ([3]; read-out: Inhibition of cell growth (IC50, μM) by quinoxaline-piperazine compounds against human cancer cell lines: Huvec): 0.5 µM; IC50 (SK-OV-3 (ovary); SK-OV-3, read-out: Inhibition of cell growth (IC50, μM) by quinoxaline-piperazine compounds against human cancer cell lines: SK-OV-3): 1 µM
7 | COc1cc(OC)cc(N2CCN(C(=O)Nc3nc4cc(C)ccc4nc3OC)CC2)c1 [Compound 47, 1-[(2-Methoxy-6-methylquinoxalin-3-yl)aminocarbonyl]-4-(3,5-dimethoxyphenyl)piperazine] | – | – | – | – | – | – | – | – | – | – | – | – | – | – | – | 0.032 | 0.048 | 0.055 | 0.039 | 0.07 | IC50 (Caki-1 (kidney); [19]): 0.029 µM; IC50 (OVCAR-3 (ovary); [21]): 0.023 µM; IC50 [2, 22]: 0.063 µM; IC50 (HCT116 (colon); [23]): 0.047 µM; IC50 (HepG2 (liver); [24]): 0.045 µM; IC50 (PC3 (prostate); [26]): 0.063 µM; IC50 (MKN-45 (stomach); [27]): 0.04 µM
8 | COc1nc2cc(C)ccc2nc1NC(=O)N1CCN(c2cc(C)cc(C)c2)CC1 [Compound 136, 1-[(3-Methoxy-6-methylquinoxalin-2-yl)aminocarbonyl]-4-(3,5-dimethylphenyl)piperazine] | 0.045 | 0.13 | 0.24 | 0.24 | 0.14 | 0.21 | 0.2 | 0.15 | 0.19 | 0.21 | 0.25 | 0.18 | 0.057 | 0.1 | 0.28 | – | – | – | – | – | –
